In patent publication US6355799B1, “Substituted benzene compounds, process for their preparation, and herbicidal and defoliant compositions containing them” (ISK Americas Incorporated, priority 1997, dated 2002):

Columns and labels:
Type in all cases: in vivo
[1] = system: field corn (Zea mays L., var. Dekalb 535, CORN); experiment: Pre-emerge test, crop safety; conditions: crop damage rating 0-100, 14 days after application
Outline: (§1)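 Applied at 15–1000 g ai/ha from acetone in 187 l/ha spray volume. Post-emergence applications included 0.25% v/v non-ionic surfactant and reached plants sown 8–21 days before. Pre-emergence applications were incorporated by surface watering. Efficacy or crop damage was rated on a 0–100 scale after 14 days.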

[2] = system: upland rice (Oryza sp., var. Tebonnet, RICE); experiment: Pre-emerge test, crop safety; conditions: crop damage rating 0-100, 14 days after application
Outline: as §1

[3] = system: johnsongrass (Sorghum halepense, SORHA); experiment: Pre-emerge test, greenhouse herbicide activity screening; conditions: phytotoxicity rating 0-100, 14 days after application
Outline: (§2)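 Sandy loam pots; pre-emerge: sown 1 d pre-spray, surface-watered after, then bottom-watered. Post-emerge: sown 8–21 d before, 2–3 leaf stage, + 0.25% v/v NIS, bottom-watered. Acetone, 187 l/ha track spray, 15–1000 g ai/ha. 0–100 injury score, day 14.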

[4] = system: common ragweed (Ambrosia artemisizfolia L., AMBEL); experiment: as above; conditions: phytotoxicity rating 0-100, 14 days after application
Outline: as §2

[5] = system: ivyleaf morningglory (Ipomoea hederacea, IPOHE); experiment: as above; conditions: phytotoxicity rating 0-100, 14 days after application
Outline: as §2

[6] = system: sicklepod (Cassia obtusifolia, CASOB); experiment: as above; conditions: phytotoxicity rating 0-100, 14 days after application
Outline: as §2

[7] = system: green foxtail (Setaria viridis, SETVI); experiment: as above; conditions: phytotoxicity rating 0-100, 14 days after application
Outline: as §2

[8] = system: velvetleaf (Abutilon theophrasti, ABUTH); experiment: as above; conditions: phytotoxicity rating 0-100, 14 days after application
Outline: as §2

[9] = system: barnyardgrass (Echinochloa crus-galli, ECHCG); experiment: as above; conditions: phytotoxicity rating 0-100, 14 days after application
Outline: as §2

[10] = system: lambsquarters (Chenopodium album, CHEAL); experiment: as above; conditions: phytotoxicity rating 0-100, 14 days after application
Outline: as §2

[11] = system: large crabgrass (Digitaria sanguinalis, DIGSA); experiment: as above; conditions: phytotoxicity rating 0-100, 14 days after application
Outline: as §2

[12] = system: redroot pigweed (Amaranthus retroflexus, AMARE); experiment: as above; conditions: phytotoxicity rating 0-100, 14 days after application
Outline: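 Visual ratings on a 0-100 scale (0 no damage, 100 all plants dead) were taken at 14 days after treatment. Rates of 15-1000 g ai/ha in acetone, 187 l/ha, were sprayed onto soil one day after planting (pre-emerge) or onto 2-3 leaf plants with 0.25% v/v surfactant (post-emerge).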

[13] = system: johnsongrass (Sorghum halepense, SORHA); experiment: Post-emerge test, greenhouse herbicide activity screening; conditions: post-emerge, 14 days after application, rating scale 0-100
Outline: (§3)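 Compounds in acetone were track-sprayed at 15–1000 g ai/ha: pre-emergence onto soil sown the previous day, then top-watered to incorporate and later bottom-watered; post-emergence onto 2–3 leaf plants with 0.25% v/v surfactant, bottom-watered only. Ratings on a 0–100 phytotoxicity scale were taken at day 14.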

[14] = system: ivyleaf morningglory (Ipomoea hederacea, IPOHE); experiment: as above; conditions: post-emerge, 14 days after application, rating scale 0-100
Outline: as §3

[15] = system: sicklepod (Cassia obtusifolia, CASOB); experiment: as above; conditions: post-emerge, 14 days after application, rating scale 0-100
Outline: as §3

[16] = system: green foxtail (Setaria viridis, SETVI); experiment: as above; conditions: post-emerge, 14 days after application, rating scale 0-100
Outline: as §3

[17] = system: velvetleaf (Abutilon theophrasti, ABUTH); experiment: as above; conditions: post-emerge, 14 days after application, rating scale 0-100
Outline: as §3

[18] = system: barnyardgrass (Echinochloa crus-galli, ECHCG); experiment: as above; conditions: post-emerge, 14 days after application, rating scale 0-100
Outline: as §3

[19] = system: lambsquarters (Chenopodium album, CHEAL); experiment: as above; conditions: post-emerge, 14 days after application, rating scale 0-100
Outline: as §3

[20] = system: large crabgrass (Digitaria sanguinalis, DIGSA); experiment: as above; conditions: post-emerge, 14 days after application, rating scale 0-100
Outline: as §3

[21] = system: redroot pigweed (Amaranthus retroflexus, AMARE); experiment: as above; conditions: post-emerge, 14 days after application
Outline: as §3

[22] = system: field corn (Zea mays L., var. Dekalb 535, CORN); experiment: Post-emerge test, crop safety; conditions: post-emerge, 14 days after application, rating scale 0-100
Outline: as §2

[23] = system: upland rice (Oryza sp., var. Tebonnet, RICE); experiment: Post-emerge test, crop safety; conditions: post-emerge, 14 days after application, rating scale 0-100
Outline: as §2

[24] = 63 g ai/ha, rating scale 0-100 (0 no damage, 100 complete death)
[25] = 250 g ai/ha, rating scale 0-100

Cn1c(C(F)(F)F)cc(=O)n(-c2c(F)cc(Cl)c(OCC#N)c2NC(=O)c2ccc3ccccc3c2)c1=O [2-200]
10: phytotoxicity rating CORN (crop damage) ([22]; 63 g ai/ha) | phytotoxicity rating RICE (crop damage) ([23]; 63 g ai/ha)
75: Pre-emerge Herbicidal Activity CORN ([1]; 63 g ai/ha)
99: Pre-emerge Herbicidal Activity ECHCG ([9]; 63 g ai/ha)
80: Pre-emerge Herbicidal Activity RICE ([2]; 63 g ai/ha) | Pre-emerge Herbicidal Activity CASOB ([6]; 63 g ai/ha)
30: phytotoxicity rating SETVI ([16]; 63 g ai/ha)
20: phytotoxicity rating CORN (crop damage) ([22]; 250 g ai/ha) | phytotoxicity rating RICE (crop damage) ([23]; 250 g ai/ha)
100: Pre-emerge Herbicidal Activity CORN ([1]; 250 g ai/ha) | Pre-emerge Herbicidal Activity RICE ([2]; 250 g ai/ha) | Pre-emerge Herbicidal Activity SORHA ([3]; 63 g ai/ha) | Pre-emerge Herbicidal Activity SORHA ([3]; 250 g ai/ha) | Pre-emerge Herbicidal Activity AMBEL ([4]; 63 g ai/ha) | Pre-emerge Herbicidal Activity AMBEL ([4]; 250 g ai/ha) | Pre-emerge Herbicidal Activity IPOHE ([5]; 63 g ai/ha) | Pre-emerge Herbicidal Activity IPOHE ([5]; 250 g ai/ha) | Pre-emerge Herbicidal Activity CASOB ([6]; 250 g ai/ha) | Pre-emerge Herbicidal Activity SETVI ([7]; 63 g ai/ha) | Pre-emerge Herbicidal Activity SETVI ([7]; 250 g ai/ha) | Pre-emerge Herbicidal Activity ABUTH ([8]; 63 g ai/ha) | Pre-emerge Herbicidal Activity ABUTH ([8]; 250 g ai/ha) | Pre-emerge Herbicidal Activity ECHCG ([9]; 250 g ai/ha) | Pre-emerge Herbicidal Activity CHEAL ([10]; 63 g ai/ha) | Pre-emerge Herbicidal Activity CHEAL ([10]; 250 g ai/ha) | Pre-emerge Herbicidal Activity DIGSA ([11]; 63 g ai/ha) | Pre-emerge Herbicidal Activity DIGSA ([11]; 250 g ai/ha) | Pre-emerge Herbicidal Activity AMARE ([12]; 63 g ai/ha) | Pre-emerge Herbicidal Activity AMARE ([12]; 250 g ai/ha) | phytotoxicity rating IPOHE ([14]; 63 g ai/ha) | phytotoxicity rating IPOHE ([14]; 250 g ai/ha) | phytotoxicity rating CASOB ([15]; 63 g ai/ha) | phytotoxicity rating CASOB ([15]; 250 g ai/ha) | phytotoxicity rating ABUTH ([17]; 63 g ai/ha) | phytotoxicity rating ABUTH ([17]; 250 g ai/ha) | phytotoxicity rating CHEAL ([19]; 63 g ai/ha) | phytotoxicity rating CHEAL ([19]; 250 g ai/ha) | phytotoxicity rating AMARE [21, 24] | phytotoxicity rating AMARE [21, 25]
50: phytotoxicity rating SETVI ([16]; 250 g ai/ha)
0: phytotoxicity rating SORHA ([13]; 63 g ai/ha) | phytotoxicity rating SORHA ([13]; 250 g ai/ha) | phytotoxicity rating ECHCG ([18]; 63 g ai/ha) | phytotoxicity rating ECHCG ([18]; 250 g ai/ha) | phytotoxicity rating DIGSA ([20]; 63 g ai/ha) | phytotoxicity rating DIGSA ([20]; 250 g ai/ha)

Cc1ccc(-n2c(=O)cc(C(F)(F)F)n(C)c2=O)c(NC(=O)c2ccc3ccccc3c2)c1 [2-201]
50: phytotoxicity rating ECHCG ([18]; 63 g ai/ha)
35: phytotoxicity rating DIGSA ([20]; 63 g ai/ha) | phytotoxicity rating CORN (crop damage) ([22]; 250 g ai/ha)
95: Pre-emerge Herbicidal Activity DIGSA ([11]; 250 g ai/ha) | Pre-emerge Herbicidal Activity AMARE ([12]; 63 g ai/ha) | Pre-emerge Herbicidal Activity AMARE ([12]; 250 g ai/ha) | phytotoxicity rating IPOHE ([14]; 63 g ai/ha) | phytotoxicity rating IPOHE ([14]; 250 g ai/ha) | phytotoxicity rating ABUTH ([17]; 63 g ai/ha) | phytotoxicity rating CHEAL ([19]; 63 g ai/ha)
55: Pre-emerge Herbicidal Activity IPOHE ([5]; 63 g ai/ha)
98: Pre-emerge Herbicidal Activity ABUTH ([8]; 63 g ai/ha) | Pre-emerge Herbicidal Activity CHEAL ([10]; 63 g ai/ha) | phytotoxicity rating CHEAL ([19]; 250 g ai/ha)
75: Pre-emerge Herbicidal Activity SETVI ([7]; 250 g ai/ha) | Pre-emerge Herbicidal Activity ECHCG ([9]; 250 g ai/ha)
45: Pre-emerge Herbicidal Activity DIGSA ([11]; 63 g ai/ha) | phytotoxicity rating DIGSA ([20]; 250 g ai/ha)
15: Pre-emerge Herbicidal Activity ECHCG ([9]; 63 g ai/ha)
100: Pre-emerge Herbicidal Activity ABUTH ([8]; 250 g ai/ha) | Pre-emerge Herbicidal Activity CHEAL ([10]; 250 g ai/ha) | phytotoxicity rating AMARE [21, 25]
60: phytotoxicity rating CASOB ([15]; 63 g ai/ha) | phytotoxicity rating ECHCG ([18]; 250 g ai/ha) | phytotoxicity rating RICE (crop damage) ([23]; 63 g ai/ha)
85: phytotoxicity rating CASOB ([15]; 250 g ai/ha)
0: Pre-emerge Herbicidal Activity CORN ([1]; 63 g ai/ha) | Pre-emerge Herbicidal Activity CORN ([1]; 250 g ai/ha) | Pre-emerge Herbicidal Activity RICE ([2]; 63 g ai/ha) | Pre-emerge Herbicidal Activity SORHA ([3]; 63 g ai/ha) | Pre-emerge Herbicidal Activity CASOB ([6]; 63 g ai/ha) | Pre-emerge Herbicidal Activity CASOB ([6]; 250 g ai/ha) | Pre-emerge Herbicidal Activity SETVI ([7]; 63 g ai/ha) | phytotoxicity rating SORHA ([13]; 63 g ai/ha) | phytotoxicity rating SORHA ([13]; 250 g ai/ha)
80: Pre-emerge Herbicidal Activity AMBEL ([4]; 250 g ai/ha) | Pre-emerge Herbicidal Activity IPOHE ([5]; 250 g ai/ha)
20: phytotoxicity rating SETVI ([16]; 63 g ai/ha)
30: Pre-emerge Herbicidal Activity RICE ([2]; 250 g ai/ha) | Pre-emerge Herbicidal Activity SORHA ([3]; 250 g ai/ha) | Pre-emerge Herbicidal Activity AMBEL ([4]; 63 g ai/ha) | phytotoxicity rating SETVI ([16]; 250 g ai/ha) | phytotoxicity rating CORN (crop damage) ([22]; 63 g ai/ha)
65: phytotoxicity rating RICE (crop damage) ([23]; 250 g ai/ha)
99: phytotoxicity rating ABUTH ([17]; 250 g ai/ha) | phytotoxicity rating AMARE [21, 24]
